In ChEMBL document CHEMBL4342421, “Current scenario of tetrazole hybrids for antibacterial activity” (Eur J Med Chem, 2019):
≈ marks a conversion by molar mass, not a printed value.

Columns and labels:
Escherichia coli [1] = assay: Antimicrobial activity against Escherichia coli; assay type: functional
Bacillus subtilis [2] = assay: Antimicrobial activity against Bacillus subtilis; assay type: functional
Salmonella typhimurium = assay: Antimicrobial activity against Salmonella typhimurium; assay type: functional, Salmonella enterica subsp. enterica serovar Typhimurium; conditions: Salmonella enterica
Priestia megaterium = assay: Antimicrobial activity against Bacillus megaterium; assay type: functional
Micrococcus luteus [3] = assay: Antibacterial activity against Micrococcus luteus; assay type: functional
SiHa = assay: Growth inhibition of human SiHa cells; assay type: functional
MDA-MB-231 = assay: Growth inhibition of human MDA-MB-231 cells; assay type: functional
PANC-1 = assay: Growth inhibition of human PANC1 cells; assay type: functional
Pseudomonas aeruginosa [4] = assay: Antimicrobial activity against Pseudomonas aeruginosa; assay type: functional
Staphylococcus aureus [5] = assay: Antimicrobial activity against Staphylococcus aureus; assay type: functional
Bacillus cereus [6] = assay: Antimicrobial activity against Bacillus cereus; assay type: functional
Candida albicans [7] = assay: Antifungal activity against Candida albicans; assay type: functional
Staphylococcus aureus [8] = assay: Antimicrobial activity against Staphylococcus aureus assessed as zone of inhibition at 250 ug/ml; assay type: functional; conditions: read-out: IZ
Bacillus cereus [9] = assay: Antimicrobial activity against Bacillus cereus assessed as zone of inhibition at 250 ug/ml; assay type: functional; conditions: read-out: IZ
Escherichia coli [10] = assay: Antimicrobial activity against Escherichia coli assessed as zone of inhibition at 250 ug/ml; assay type: functional; conditions: read-out: IZ
Pseudomonas aeruginosa [11] = assay: Antimicrobial activity against Pseudomonas aeruginosa assessed as zone of inhibition at 250 ug/ml; assay type: functional; conditions: read-out: IZ
Candida albicans [12] = assay: Antifungal activity against Candida albicans assessed as zone of inhibition at 250 ug/ml; assay type: functional; conditions: read-out: IZ
Aspergillus niger [13] = assay: Antifungal activity against Aspergillus niger assessed as zone of inhibition at 250 ug/ml; assay type: functional; conditions: read-out: IZ
Aspergillus niger [14] = assay: Antifungal activity against Aspergillus niger; assay type: functional
Escherichia coli [15] = assay: Antimicrobial activity against Escherichia coli assessed as zone of inhibition at 250 ug/ml after 24 hrs by disk diffusion method; assay type: functional; conditions: read-out: IZ
Aspergillus flavus [16] = assay: Antifungal activity against Aspergillus flavus; assay type: functional
Fusarium oxysporum = assay: Antifungal activity against Fusarium oxysporum; assay type: functional
Staphylococcus aureus [17] = assay: Antibacterial activity against methicillin resistant Staphylococcus aureus N315 after 24 hrs by two-fold broth serial dilution method; assay type: functional; conditions: N315, 24 h
Bacillus subtilis [18] = assay: Antibacterial activity against Bacillus subtilis ATCC 21216 after 24 hrs by two-fold broth serial dilution method; assay type: functional; conditions: ATCC 21216, 24 h
Micrococcus luteus [19] = assay: Antibacterial activity against Micrococcus luteus ATCC 4698 after 24 hrs by two-fold broth serial dilution method; assay type: functional; conditions: ATCC 4698, 24 h
Escherichia coli [20] = assay: Antimicrobial activity against Escherichia coli JM 109 after 24 hrs by two-fold broth serial dilution method; assay type: functional; conditions: JM 109, 24 h
Pseudomonas aeruginosa [21] = assay: Antimicrobial activity against Pseudomonas aeruginosa ATCC 27853 after 24 hrs by two-fold broth serial dilution method; assay type: functional; conditions: ATCC 27853, 24 h
Shigella dysenteriae = assay: Antimicrobial activity against Shigella dysenteriae after 24 hrs by two-fold broth serial dilution method; assay type: functional
Candida albicans [22] = assay: Antifungal activity against Candida albicans ATCC 76615 after 24 hrs; assay type: functional; conditions: ATCC 76615, 24 h
Cyberlindnera jadinii = assay: Antifungal activity against Candida utilis after 24 hrs; assay type: functional; conditions: Williopsis jadinii
Aspergillus flavus [23] = assay: Antifungal activity against Aspergillus flavus after 24 hrs; assay type: functional
Saccharomyces cerevisiae = assay: Antifungal activity against Saccharomyces cerevisiae after 24 hrs; assay type: functional
Pichia norvegensis = assay: Antifungal activity against Candida mycoderma after 24 hrs; assay type: functional
Staphylococcus aureus [24] = assay: Antimicrobial activity against Staphylococcus aureus ATCC 25923 assessed as zone of inhibition at 100 ug/ml after 24 hrs by disc diffusion method; assay type: functional; conditions: ATCC 25923, 24 h, read-out: IZ
Klebsiella pneumoniae = assay: Antimicrobial activity against Klebsiella pneumoniae ATCC 700603 assessed as zone of inhibition at 100 ug/ml after 24 hrs by disc diffusion method; assay type: functional; conditions: ATCC 700603, 24 h, read-out: IZ
Streptococcus agalactiae = assay: Antimicrobial activity against Streptococcus agalactiae 55118 assessed as zone of inhibition at 100 ug/ml after 24 hrs by disc diffusion method; assay type: functional; conditions: Streptococcus agalactiae, 55118, 24 h; read-out: IZ

## O=C(O)c1cn(C2CC2)c2cc(N3CCN(C(=O)CCSc4nnnn4-c4ccc(Br)cc4)CC3)c(F)cc2c1=O
Escherichia coli [1]
  MIC: 15.6 µg/mL (≈ 24.3 µM)
Bacillus subtilis [2]
  MIC: 15.6 µg/mL (≈ 24.3 µM)
Salmonella typhimurium
  MIC: 15.6 µg/mL (≈ 24.3 µM)
Priestia megaterium
  MIC: 15.6 µg/mL (≈ 24.3 µM)
Micrococcus luteus [3]
  MIC: 15.6 µg/mL (≈ 24.3 µM)
SiHa
  GI50: ≤ 1000 nM
MDA-MB-231
  GI50: ≤ 1000 nM
PANC-1
  GI50: ≤ 1000 nM

## O=[N+]([O-])c1cccc(-c2nnnn2-c2nc3ccccc3s2)c1
Escherichia coli [1]
  MIC: 50 to 100 µg/mL (≈ 154 to 308 µM)
Pseudomonas aeruginosa [4]
  MIC: 50 to 100 µg/mL (≈ 154 to 308 µM)
Staphylococcus aureus [5]
  MIC: 50 to 100 µg/mL (≈ 154 to 308 µM)
Bacillus cereus [6]
  MIC: 50 to 100 µg/mL (≈ 154 to 308 µM)
Candida albicans [7]
  MIC: 50 to 100 µg/mL (≈ 154 to 308 µM)
Staphylococcus aureus [8]
  zone of inhibition at 250 µg/mL: 16 to 26 mm
Bacillus cereus [9]
  zone of inhibition at 250 µg/mL: 16 to 26 mm
Escherichia coli [10]
  zone of inhibition at 250 µg/mL: 16 to 26 mm
Pseudomonas aeruginosa [11]
  zone of inhibition at 250 µg/mL: 16 to 26 mm
Candida albicans [12]
  zone of inhibition at 250 µg/mL: 16 to 26 mm
Aspergillus niger [13]
  zone of inhibition at 250 µg/mL: 16 to 26 mm
Aspergillus niger [14]
  MIC: 50 to 100 µg/mL (≈ 154 to 308 µM)
Escherichia coli [15]
  zone of inhibition at 250 µg/mL: 18 to 26 mm

## Clc1ccc(-n2cc(-c3nnn[nH]3)nn2)cc1
Aspergillus flavus [16]
  MIC: 100 µg/mL (≈ 404 µM)
Aspergillus niger [14]
  MIC: 100 µg/mL (≈ 404 µM)
Fusarium oxysporum
  MIC: 100 µg/mL (≈ 404 µM)

## Cc1cc(=O)oc2cc(OCC(O)Cn3nnnc3C)cc(OCC(O)Cn3nnnc3C)c12 (stereo not given)
Staphylococcus aureus [17]
  MIC: 32 to 512 µg/mL (≈ 67.7 to 1080 µM)
Bacillus subtilis [18]
  MIC: 32 to 512 µg/mL (≈ 67.7 to 1080 µM)
Micrococcus luteus [19]
  MIC: 32 to 512 µg/mL (≈ 67.7 to 1080 µM)
Escherichia coli [20]
  MIC: 32 to 512 µg/mL (≈ 67.7 to 1080 µM)
Pseudomonas aeruginosa [21]
  MIC: 32 to 512 µg/mL (≈ 67.7 to 1080 µM)
Shigella dysenteriae
  MIC: 32 to 512 µg/mL (≈ 67.7 to 1080 µM)
Candida albicans [22]
  MIC: 32 to 512 µg/mL (≈ 67.7 to 1080 µM)
Cyberlindnera jadinii
  MIC: 32 to 512 µg/mL (≈ 67.7 to 1080 µM)
Aspergillus flavus [23]
  MIC: 32 to 512 µg/mL (≈ 67.7 to 1080 µM)
Saccharomyces cerevisiae
  MIC: 32 to 512 µg/mL (≈ 67.7 to 1080 µM)
Pichia norvegensis
  MIC: 32 to 512 µg/mL (≈ 67.7 to 1080 µM)

## COc1nc(N)nc(OC)c1Sc1nnnn1Cc1ccccc1
Staphylococcus aureus [24]
  zone of inhibition at 100 µg/mL: 10 to 24 mm
Klebsiella pneumoniae
  zone of inhibition at 100 µg/mL: 10 to 24 mm
Streptococcus agalactiae
  zone of inhibition at 100 µg/mL: 10 to 24 mm

## CCn1cc(C(=O)O)c(=O)c2cc(F)c(N3CCNCC3)cc21 [NORFLOXACIN]
Staphylococcus aureus [17]
  MIC: 1 to 16 µg/mL (≈ 3.13 to 50.1 µM)
Bacillus subtilis [18]
  MIC: 1 to 16 µg/mL (≈ 3.13 to 50.1 µM)
Micrococcus luteus [19]
  MIC: 1 to 16 µg/mL (≈ 3.13 to 50.1 µM)
Escherichia coli [20]
  MIC: 1 to 16 µg/mL (≈ 3.13 to 50.1 µM)
Pseudomonas aeruginosa [21]
  MIC: 1 to 16 µg/mL (≈ 3.13 to 50.1 µM)
Shigella dysenteriae
  MIC: 1 to 16 µg/mL (≈ 3.13 to 50.1 µM)
Candida albicans [22]
  MIC: 1 to 16 µg/mL (≈ 3.13 to 50.1 µM)
Cyberlindnera jadinii
  MIC: 1 to 16 µg/mL (≈ 3.13 to 50.1 µM)
Aspergillus flavus [23]
  MIC: 1 to 16 µg/mL (≈ 3.13 to 50.1 µM)
Saccharomyces cerevisiae
  MIC: 1 to 16 µg/mL (≈ 3.13 to 50.1 µM)
Pichia norvegensis
  MIC: 1 to 16 µg/mL (≈ 3.13 to 50.1 µM)

## COc1nc(N)nc(OC)c1Sc1nnnn1CC1CC1
Staphylococcus aureus [24]
  zone of inhibition at 100 µg/mL: 10 to 24 mm
Klebsiella pneumoniae
  zone of inhibition at 100 µg/mL: 10 to 24 mm
Streptococcus agalactiae
  zone of inhibition at 100 µg/mL: 10 to 24 mm

## O=C(O)c1cn(C2CC2)c2cc(N3CCN(C(=O)CCSc4nnnn4-c4ccccc4)CC3)c(F)cc2c1=O
Escherichia coli [1]
  MIC: 15.6 µg/mL (≈ 27.7 µM)
Bacillus subtilis [2]
  MIC: 15.6 µg/mL (≈ 27.7 µM)
Salmonella typhimurium
  MIC: 15.6 µg/mL (≈ 27.7 µM)
Priestia megaterium
  MIC: 15.6 µg/mL (≈ 27.7 µM)
Micrococcus luteus [3]
  MIC: 15.6 µg/mL (≈ 27.7 µM)
SiHa
  GI50: ≤ 1000 nM
MDA-MB-231
  GI50: ≤ 1000 nM
PANC-1
  GI50: ≤ 1000 nM
